Assay results as given in patent US20240122180A1, “FUNGICIDAL HALOMETHYL KETONES AND HYDRATES AND THEIR MIXTURES” (FMC Corporation, priority 2020, published 2024).

Key:
[1] = tested on: Phakopsora pachyrhizi (the causal agent of Asian soybean rust); assay: Test A: preventive spray on soybean seedlings, visual disease rating (100 = 100% control; * 50 ppm, ** 10 ppm, *** 250 ppm); assay type: in vivo; details: 100 = 100% disease control; for pest or weed control at 50 ppm: Phakopsora pachyrhizi
Summary of the method: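 Soybean seedlings sprayed to run-off with compound suspended in acetone/water with 250 ppm PEG400 surfactant, inoculated next day with P. pachyrhizi spores. Kept 24 h saturated at 22 °C, then 8 days at 22 °C before visual rating of disease control (0-100) relative to controls.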

[2] = tested on: Puccinia recondita f. sp. tritici (the causal agent of wheat leaf rust); assay: Test B: preventive spray on wheat seedlings, disease rating (100 = 100% control; * 50 ppm, ** 10 ppm, *** 250 ppm); assay type: in vivo; details: 100 = 100% disease control; for pest or weed control at 50 ppm: Puccinia recondita
Summary of the method: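 Wheat seedlings sprayed to run-off with compound in acetone/water (50/50) containing 250 ppm PEG400, inoculated next day with Puccinia recondita f. sp. tritici spores. Held 24 h saturated at 20° C, then 6 days at 20° C; disease control rated 0–100 relative to controls.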

[3] = 10 ppm test suspension, soybean seedlings
[4] = 10 ppm test suspension, wheat seedlings
[5] = 10 ppm test suspension, 0 = no control
[6] = 50 ppm test suspension, 0 = no control
[7] = 50 ppm test suspension, soybean seedlings
[8] = 50 ppm test suspension, wheat seedlings

| Structure (SMILES) | Test A disease control rating [1, 3] [%] | Test B disease control rating [2, 4] [%] | Test A disease control rating [1, 5] [%] | Test B disease control rating [2, 5] [%] | other results |
| --- | --- | --- | --- | --- | --- |
| CCOC(=COc1ccc(Cn2ccc(C(F)(F)F)n2)cc1)C(F)(F)F [compound 181] | 0 | 0 |  |  |  |
| CCO/C(=C\Oc1ccc(Cn2cc(C(=O)O)cn2)cc1)C(F)(F)F [compound 116] | 100 | 0 |  |  |  |
| NCc1ccc(OCC2(C(F)(F)F)OCCO2)cc1 [compound 174] | 0 | 0 |  |  |  |
| C=CCOC(=O)c1cnn(Cc2cccc(O/C=C(\OCC)C(F)(F)F)c2)c1 [compound 333] |  |  | 100 | 0 |  |
| O=C(NCC(F)(F)F)c1cnc(Cc2ccc(OCC(O)(O)C(F)(F)F)cc2)o1 [compound 274] |  |  | 48 | 0 |  |
| CCOC(=O)c1cnn(Cc2ccc(OCC3(C(F)(F)F)OCCCO3)cc2)c1 [compound 52] | 99 | 0 |  |  |  |
| CCOC(=O)NCc1ccc(O/C=C(\OCC)C(F)(F)F)cc1 [compound 111] | 0 | 0 |  |  |  |
| CCOC(=O)c1ccnn1Cc1ccc(F)c(O/C=C(\OCC)C(F)(F)F)c1 [compound 419] |  |  | 0 | 0 |  |
| CCOC(=O)c1ccn(Cc2cc(OC)cc(O/C=C(\OCC)C(F)(F)F)c2)n1 [compound 378] |  |  | 0 | 0 |  |
| O=C(OCc1ccncc1)c1cnn(Cc2ccc(OCC3(C(F)(F)F)OCCO3)cc2)c1 [compound 201] | 100 | 0 |  |  |  |
| CCOC(=O)C1=NOC(Cc2ccc(OCC3(C(F)(F)F)OCCO3)cc2)C1 (stereo not shown) [compound 289] |  |  | 0 | 0 |  |
| O=C(OCc1ccc(F)c(F)c1)c1cnn(Cc2ccc(OCC(O)(O)C(F)(F)F)cc2)c1 [compound 50] | 54 | 91 |  |  |  |
| CCO/C(=C\Oc1ccc(Cn2ccc(C(=O)OC(C)C)n2)cc1)C(F)(F)F [compound 327] |  |  | 100 | 0 |  |
| CCO/C(=C\Oc1cccc(Cn2cc(C(=O)OCCCC(F)(F)F)cn2)c1)C(F)(F)F [compound 355] |  |  | 100 | 0 |  |
| O=C(NCC(F)(F)F)c1cnn(Cc2ccc(OCC3(C(F)(F)F)OCCO3)cc2)c1 [compound 197] | 0 | 0 |  |  |  |
| CCO/C(=C\Oc1ccc(Cn2ccc(C(=O)OCC(C)=O)n2)cc1)C(F)(F)F [compound 359] |  |  | 100 | 0 |  |
| CCOC(=O)c1ccnn1Cc1ccc(OC=C(OCC)C(F)(F)F)cc1 [compound 241] | 0 | 0 |  |  |  |
| C#CCOC(=O)c1cnn(Cc2ccc(OCC3(C(F)(F)F)OCCO3)cc2)c1 [compound 15] | 100 | 0 |  |  |  |
| CCO/C(=C\Oc1ccc(Cc2ccnc(OCC(F)F)n2)cc1)C(F)(F)F [compound 306] |  |  |  |  | Test A disease control rating [1, 6]: 96%; Test B disease control rating [2, 6]: 68% |

| Structure (SMILES) | Test A disease control rating [1, 3] [%] | Test B disease control rating [2, 4] [%] | Test A disease control rating [1, 5] [%] | Test B disease control rating [2, 5] [%] | other results |
| --- | --- | --- | --- | --- | --- |
| CCOC(=O)c1ccnn1Cc1ccc(OCC(O)(O)C(F)(F)F)cc1 [compound 234] |  |  |  |  | Test A disease control rating [1, 7]: 100%; Test B disease control rating [2, 8]: 92% |
| O=C(OCC(=O)C1CCCCC1)c1cnn(Cc2ccc(OCC3(C(F)(F)F)OCCO3)cc2)c1 [compound 202] | 100 | 0 |  |  |  |
| CCOC(=O)c1cnn(CCCc2ccc(OCC(O)(O)C(F)(F)F)cc2)c1 [compound 286] |  |  | 87 | 55 |  |
| O=C(OCC1CCC1)c1cnn(Cc2ccc(OCC3(C(F)(F)F)OCCO3)cc2)c1 [compound 249] | 100 | 0 |  |  |  |
| OC(O)(CCc1ccc(Cn2ccc3ccccc32)cc1)C(F)(F)F [compound 30] | 0 | 0 |  |  |  |
| CCO/C(=C\Oc1ccc(CN2C(=O)c3ccccc3C2=O)cc1)C(F)(F)F [compound 184] | 0 | 0 |  |  |  |
| CCOC(=O)c1cnn(Cc2ccc(O/C=C(\OCC)C(F)(F)F)cc2)n1 [compound 119] | 97 | 0 |  |  |  |
| CCO/C(=C\Oc1cccc(Cn2cc(C(=O)OC(C)C)cn2)c1)C(F)(F)F [compound 332] |  |  | 100 | 0 |  |
| CCO/C(=C\Oc1ccc(Cn2ncnc2C#N)cc1)C(F)(F)F [compound 81] | 0 | 0 |  |  |  |
| CC(C)OC(=O)c1cnn(Cc2ccc(OCC3(C(F)(F)F)OCCO3)cc2)c1 [compound 14] | 100 | 0 |  |  |  |
| CC#CCOC(=O)c1cnn(Cc2cccc(O/C=C(\OCC)C(F)(F)F)c2)c1 [compound 300] |  |  | 100 | 0 |  |
| C=C(C)COC(=O)c1cnn(Cc2cccc(O/C=C(\OCC)C(F)(F)F)c2)c1 [compound 335] |  |  | 100 | 0 |  |
| CCNC(=O)OCc1ccc(O/C=C(\OCC)C(F)(F)F)cc1 [compound 196] | 0 | 74 |  |  |  |
| OC(O)(COc1cccc(CCl)c1)C(F)(F)F [compound 423] |  |  |  |  | pest or weed control at 50 ppm [1, 6]: 87%; pest or weed control at 50 ppm [2, 6]: 80% |
| CCOC(=O)c1cnn(Cc2ccc(O/C=C(/OCC)C(F)(F)F)cc2)c1 [compound 399] |  |  |  |  | pest or weed control at 50 ppm [1, 6]: 97%; pest or weed control at 50 ppm [2, 6]: 0% |
| C=CCOC(=O)c1ccn(Cc2ccc(OC=C(OCC)C(F)(F)F)cc2)n1 [compound 291] |  |  | 100 | 0 |  |
| COC(=O)COC(=O)c1cnn(Cc2ccc(OCC3(C(F)(F)F)OCCO3)cc2)c1 [compound 203] | 50 | 0 |  |  |  |
| CCOC(=O)C1=NOC(Cc2ccc(OC=C(OCC)C(F)(F)F)cc2)C1 (stereo not shown) [compound 287] |  |  |  |  | Test A disease control rating [1, 6]: 77%; Test B disease control rating [2, 6]: 0% |
| C=CCOC(=O)c1cnn(Cc2ccc(OCC(O)(O)C(F)(F)F)cc2)c1 [compound 43] | 96 | 60 |  |  |  |

| Structure (SMILES) | Test A disease control rating [1, 3] [%] | Test B disease control rating [2, 4] [%] | Test A disease control rating [1, 5] [%] | Test B disease control rating [2, 5] [%] | other results |
| --- | --- | --- | --- | --- | --- |
| CCOC(=COc1ccc(Cn2ccc(C(=O)OC(C)(C)C)n2)cc1)C(F)(F)F [compound 253] | 0 | 0 |  |  |  |
| COC(=O)NN=Cc1ccc(OCC(O)(O)C(F)(F)F)cc1 [compound 33] | 96 | 86 |  |  |  |
| CCO/C(=C\Oc1ccc(Cn2cncn2)cc1)C(F)(F)F [compound 157] | 0 | 9 |  |  |  |
| O=C(NCC1CC1)c1cnn(Cc2ccc(OCC(O)(O)C(F)(F)F)cc2)c1 [compound 36] | 70 | 0 |  |  |  |
| CCO/C(=C\Oc1cccc(Cn2cc(C(=O)OCC(C)C)cn2)c1)C(F)(F)F [compound 334] |  |  | 100 | 0 |  |
| CCOC(=O)c1cnn(Cc2ccc(CCC(O)(O)C(F)(F)F)cc2)c1 [compound 66] |  |  |  |  | Test A disease control rating [1, 7]: 92%; Test B disease control rating [2, 8]: 89% |
| CCO/C(=C\Oc1ccc(CO)cc1)C(F)(F)F [compound 195] | 0 | 0 |  |  |  |
| CN(C)C(=O)C1=NOC(c2ccc(OCC(O)(O)C(F)(F)F)cc2)C1 (stereo not shown) [compound 41] | 92 | 23 |  |  |  |
| C#CCO/C(=C\Oc1ccc(Cn2cc(C(=O)OCC)cn2)cc1)C(F)(F)F [compound 56] | 38 | 0 |  |  |  |
| CCCOC(=O)c1ccc(O/C=C(\OCC)C(F)(F)F)cc1 [compound 94] | 0 | 0 |  |  |  |
| CCO/C(=C\Oc1ccc(C(=O)NC2CC2)cc1)C(F)(F)F [compound 100] | 0 | 0 |  |  |  |
| CN(C)C(=O)c1cnn(Cc2ccc(OCC3(C(F)(F)F)OCCO3)cc2)c1 [compound 198] | 0 | 0 |  |  |  |
| CCO/C(=C\Oc1cccc(Cn2cc(C(=O)OCCC(C)C)cn2)c1)C(F)(F)F [compound 350] |  |  | 100 | 0 |  |
| CCO/C(=C\Oc1cccc(Cn2cc(C(=O)OCCC(F)=C(F)F)cn2)c1)C(F)(F)F [compound 349] |  |  | 100 | 0 |  |
| CCO/C(=C\Oc1ccc(Cn2ccc(C(=O)O)n2)cc1)C(F)(F)F [compound 299] |  |  | 100 | 0 |  |
| CS(=O)(=O)c1ccc(OCC(O)(O)C(F)(F)F)cc1 [compound 31] | 44 | 93 |  |  |  |
| CCOCc1cnn(Cc2ccc(OCC3(C(F)(F)F)OCCO3)cc2)c1 [compound 240] | 99 | 0 |  |  |  |
| C=C(C)COC(=O)c1cnn(Cc2ccc(OCC(O)(O)C(F)(F)F)cc2)c1 [compound 40] | 91 | 68 |  |  |  |
